Assay results as given in patent publication US20220016102A1, “ER PROTEIN REGULATORS AND USE THEREOF” (ShanghaiTech University, priority 2018, published 2022).

Key:
[1] = target: T1, ER protein (Homo sapiens, UniProt P03372); assay: Western blotting analysis of ER protein degradation in MCF-7 cell line; assay type: cell-based; design: western blotting detection of the level of intracellular ER protein; endogenous in cells; conditions: MCF-7 cells, Western blot gray values vs DMSO control
T1 sequence (P03372 1-595): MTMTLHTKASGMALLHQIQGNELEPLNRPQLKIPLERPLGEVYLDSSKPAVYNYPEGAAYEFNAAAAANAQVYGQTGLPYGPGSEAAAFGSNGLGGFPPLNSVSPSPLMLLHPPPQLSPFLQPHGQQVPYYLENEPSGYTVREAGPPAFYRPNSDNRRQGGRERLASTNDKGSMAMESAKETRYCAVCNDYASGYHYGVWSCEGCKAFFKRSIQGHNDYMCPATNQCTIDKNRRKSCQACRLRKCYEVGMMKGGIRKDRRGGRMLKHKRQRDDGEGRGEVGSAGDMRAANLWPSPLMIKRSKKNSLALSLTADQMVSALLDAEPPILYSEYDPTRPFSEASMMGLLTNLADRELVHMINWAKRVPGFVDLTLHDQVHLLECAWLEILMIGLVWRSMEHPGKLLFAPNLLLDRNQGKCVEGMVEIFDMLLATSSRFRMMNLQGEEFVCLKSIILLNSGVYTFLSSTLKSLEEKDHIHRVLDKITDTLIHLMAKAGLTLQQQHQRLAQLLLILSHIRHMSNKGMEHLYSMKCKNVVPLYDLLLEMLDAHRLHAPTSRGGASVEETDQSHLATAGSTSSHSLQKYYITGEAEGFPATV
Description: MCF-7 were cultured in ncubator with 5% CO2 at 37° C. Complete medium was EMEM supplemented with 10% FBS, 100 U/mL Penicillin and Streptomycin, and 0.77 μg/mL recombinant human insulin. […]
DC50 value (the drug concentration required for degrading proteins by 50%, abbreviated as DC50) reads method: comparing the gray values of the Western blotting bands for the drug treatment with the gray values of the Western blotting band for the DMSO control, and reading the drug concentration range corresponding to the gray value of the Western blotting bands for the drug treatment which is equal to half of the gray value of the Western blotting band for the DMSO control.
DC50 value could also be calculated as follows: using software ImageJ to quantify the gray values of the Western blotting bands for the drug treatment, fitting the relationship curve between drug concentrations and gray values, and from the fitted curve, calculating the drug concentration corresponding to half of the gray value of the Western blotting band for the DMSO control.

[2] = target: T1, ER protein; assay: Western blotting analysis of ER protein degradation in T47D cell line; assay type: cell-based; design: western blotting detection of the level of intracellular ER protein; endogenous in cells; host or cells: T47D; conditions: T47D cells; for DC50: degradation of ER protein, drug treatment for 16 hours, Western blot gray values vs DMSO control, read-out: DC50 (nM)/T47Dcell line
Description: T47D cells were cultured in an incubator with 5% CO2 at 37° C. Complete medium was RPMI1640 supplemented with 10% Foetal bovine serum (FBS), 100 U/ml Penicillin and Streptomycin, and 0.77 μg/mL recombinant human insulin. Western blotting analysis of T47D cell line: • Cells were plated in a 24-well plate at a cell seeding […] of 1.5×10^5 cells/mL, with 1 ml cell suspensions per well. • After 24 h the cells were adherent, and the cells in each well were treated with 1 μL a certain concentration of ER protein regulators of the present disclosure. […] Afterwards, the membranes were block by using the Blocking Buffer, and the antibody incubation and development were performed. (The above procedures were all based on the antibody product manual of the manufacturer) DC50 value (the drug concentration required for degrading proteins by 50%, abbreviated as DC50) reads method: comparing the gray values of the Western blotting bands for the drug treatment with the gray values of the Western blotting band for the DMSO control, and reading the drug concentration range corresponding to the gray value of the Western blotting bands for the drug treatment which is equal to half of the gray value of the Western blotting band for the DMSO control. DC50 value could also be calculated as follows: using software ImageJ to quantify the gray values of the Western blotting bands for the drug treatment, fitting the relationship curve between drug concentrations and gray values, and from the fitted curve, calculating the drug concentration corresponding to half of the gray value of the Western blotting band for the DMSO control.

Structure (SMILES) | DC50 [1] [nM] | DC50 [2] [nM] | Degradation of the ER protein in the T47D cell line (Western blotting) ([2]; FIGS. 1(A)-(O))
Cc1ncsc1-c1ccc(CNC(=O)[C@@H]2C[C@@H](O)CN2C(=O)[C@@H](NC(=O)CCOCCOCCC(=O)NCCOc2ccc(C(=C(CCCl)c3ccccc3)c3ccc(O)cc3)cc2)C(C)(C)C)cc1 [SIAIS208017, (2S,4R)-1-((S)-2-(tert-butyl)-16-(4-(4-chloro-1-(4-hydroxyphenyl)-2-phenylbut-1-en-1-yl)phenoxy)-4,13-dioxo-7,10-dioxa-3,14-diazahexadecanoyl)-4-hydroxy-N-(4-(4-methylthiazol-5-yl)benzyl)pyrrolidine-2-carboxamide] | < 100 | < 50 | 
CCC(=C(c1ccc(O)cc1)c1ccc(OCCNC(=O)CCCCCCCCCC(=O)N[C@H](C(=O)N2C[C@H](O)C[C@H]2C(=O)NCc2ccc(-c3scnc3C)cc2)C(C)(C)C)cc1)c1ccc(O)cc1 [SIAIS208169, N1-(2-(4-(1,2-bis(4-hydroxyphenyl)but-1-en-1-yl)phenoxy)ethyl)-N11-((S)-1-((2S,4R)-4-hydroxy-2-((4-(4-methylthiazol-5-yl)benzyl)carbamoyl)pyrrolidin-1-yl)-3,3-dimethyl-1-oxobutan-2-yl)undecanediamide] |  | < 50 | 
CCC(=C(c1ccc(O)cc1)c1ccc(OCCNC(=O)CCN2CCN(CCNc3cccc4c3C(=O)N(C3CCC(=O)NC3=O)C4=O)CC2)cc1)c1ccc(O)cc1 (centres unmarked) [SIAIS208172, N-(2-(4-(1,2-bis(4-hydroxyphenyl)but-1-en-1-yl)phenoxy)ethyl)-3-(4-(2-((2-(2,6-dioxopiperidin-3-yl)-1,3-dioxoisoindolin-4-yl)amino)ethyl)piperazin-1-yl)propanamide] |  | < 50 | 
CCC(=C(c1ccc(O)cc1)c1ccc(OCCNC(=O)CCOCCOCCOCCC(=O)N[C@H](C(=O)N2C[C@H](O)C[C@H]2C(=O)NCc2ccc(-c3scnc3C)cc2)C(C)(C)C)cc1)c1ccc(O)cc1 [SIAIS208174, (2S,4R)-1-((S)-19-(4-(1,2-bis(4-hydroxyphenyl)but-1-en-1-yl)phenoxy)-2-(tert-butyl)-4,16-dioxo-7,10,13-trioxa-3,17-diazanonadecanoyl)-4-hydroxy-N-(4-(4-methylthiazol-5-yl)benzyl)pyrrolidine-2-carboxamide] |  | < 50 | 
O=C(CCCCCCNc1cccc2c1CN(C1CCC(=O)NC1=O)C2=O)NCCOc1ccc(C(=C(CCCl)c2ccccc2)c2ccc(O)cc2)cc1 (centres unmarked) [SIAIS251033, N-(2-(4-(4-chloro-1-(4-hydroxyphenyl)-2-phenylbut-1-en-1-yl)phenoxy)ethyl)-7-((2-(2,6-dioxopiperidin-3-yl)-1-oxoisoindolin-4-yl)amino)heptanamide] |  | 50 | 
Cc1ncsc1-c1ccc(CNC(=O)[C@@H]2C[C@@H](O)CN2C(=O)[C@@H](NC(=O)CCCC(=O)N2CCN(CCOc3ccc(C(=C(CCCl)c4ccccc4)c4ccc(O)cc4)cc3)CC2)C(C)(C)C)cc1 [SIAIS251042, (2S,4R)-1-((S)-2-(5-(4-(2-(4-(4-chloro-1-(4-hydroxyphenyl)-2-phenylbut-1-en-1-yl)phenoxy)ethyl)piperazin-1-yl)-5-oxopentanamido)-3,3-dimethylbutanoyl)-4-hydroxy-N-(4-(4-methylthiazol-5-yl)benzyl)pyrrolidine-2-carboxamide] |  | < 50 | 
Cc1ncsc1-c1ccc(CNC(=O)[C@@H]2C[C@@H](O)CN2C(=O)[C@@H](NC(=O)CCCCC(=O)N2CCN(CCOc3ccc(C(=C(CCCl)c4ccccc4)c4ccc(O)cc4)cc3)CC2)C(C)(C)C)cc1 [SIAIS251043, (2S,4R)-1-((S)-2-(6-(4-(2-(4-(4-chloro-1-(4-hydroxyphenyl)-2-phenylbut-1-en-1-yl)phenoxy)ethyl)piperazin-1-yl)-6-oxohexanamido)-3,3-dimethylbutanoyl)-4-hydroxy-N-(4-(4-methylthiazol-5-yl)benzyl)pyrrolidine-2-carboxamide] |  | < 50 | 
Cc1ncsc1-c1ccc(CNC(=O)[C@@H]2C[C@@H](O)CN2C(=O)[C@@H](NC(=O)CCCCCCCC(=O)N2CCN(CCOc3ccc(C(=C(CCCl)c4ccccc4)c4ccc(O)cc4)cc3)CC2)C(C)(C)C)cc1 [SIAIS251046, (2S,4R)-1-((S)-2-(9-(4-(2-(4-(4-chloro-1-(4-hydroxyphenyl)-2-phenylbut-1-en-1-yl)phenoxy)ethyl)piperazin-1-yl)-9-oxononanamido)-3,3-dimethylbutanoyl)-4-hydroxy-N-(4-(4-methylthiazol-5-yl)benzyl)pyrrolidine-2-carboxamide] |  | < 50 | 
Cc1ncsc1-c1ccc(CNC(=O)[C@@H]2C[C@@H](O)CN2C(=O)[C@@H](NC(=O)CCCCCCCCC(=O)N2CCN(CCOc3ccc(C(=C(CCCl)c4ccccc4)c4ccc(O)cc4)cc3)CC2)C(C)(C)C)cc1 [SIAIS251047, (2S,4R)-1-((S)-2-(10-(4-(2-(4-(4-chloro-1-(4-hydroxyphenyl)-2-phenylbut-1-en-1-yl)phenoxy)ethyl)piperazin-1-yl)-10-oxodecanamido)-3,3-dimethylbutanoyl)-4-hydroxy-N-(4-(4-methylthiazol-5-yl)benzyl)pyrrolidine-2-carboxamide] |  | < 50 | 
Cc1ncsc1-c1ccc(CNC(=O)[C@@H]2C[C@@H](O)CN2C(=O)[C@@H](NC(=O)CCOCCOCCC(=O)N2CCN(CCOc3ccc(C(=C(CCCl)c4ccccc4)c4ccc(O)cc4)cc3)CC2)C(C)(C)C)cc1 [SIAIS251049, (2S,4R)-1-((S)-2-(3-(2-(3-(4-(2-(4-(4-chloro-1-(4-hydroxyphenyl)-2-phenylbut-1-en-1-yl)phenoxy)ethyl)piperazin-1-yl)-3-oxopropoxy)ethoxy)propanamido)-3,3-dimethylbutanoyl)-4-hydroxy-N-(4-(4-methylthiazol-5-yl)benzyl)pyrrolidine-2-carboxamide] |  | < 50 | 
Cc1ncsc1-c1ccc(CNC(=O)[C@@H]2C[C@@H](O)CN2C(=O)[C@@H](NC(=O)CCOCCOCCOCCC(=O)N2CCN(CCOc3ccc(C(=C(CCCl)c4ccccc4)c4ccc(O)cc4)cc3)CC2)C(C)(C)C)cc1 [SIAIS251050, (2S,4R)-1-((S)-2-(tert-butyl)-16-(4-(2-(4-(4-chloro-1-(4-hydroxyphenyl)-2-phenylbut-1-en-1-yl)phenoxy)ethyl)piperazin-1-yl)-4,16-dioxo-7,10,13-trioxa-3-azahexadecanoyl)-4-hydroxy-N-(4-(4-methylthiazol-5-yl)benzyl)pyrrolidine-2-carboxamide] |  | < 50 | 
Cc1ncsc1-c1ccc(CNC(=O)[C@@H]2C[C@@H](O)CN2C(=O)[C@@H](NC(=O)CCOCCOCCOCCOCCC(=O)N2CCN(CCOc3ccc(C(=C(CCCl)c4ccccc4)c4ccc(O)cc4)cc3)CC2)C(C)(C)C)cc1 [SIAIS251051, (2S,4R)-1-((S)-2-(tert-butyl)-19-(4-(2-(4-(4-chloro-1-(4-hydroxyphenyl)-2-phenylbut-1-en-1-yl)phenoxy)ethyl)piperazin-1-yl)-4,19-dioxo-7,10,13,16-tetraoxa-3-azanonadecanoyl)-4-hydroxy-N-(4-(4-methylthiazol-5-yl)benzyl)pyrrolidine-2-carboxamide] |  | < 50 | 
NCCOc1ccc(C(=C(CCCl)c2ccccc2)c2ccc(O)cc2)cc1 [Toremifene derivative B, 4-(1-(4-(2-aminoethoxy)phenyl)-4-chloro-2-phenylbut-1-en-1-yl)phenol, reference compound] |  |  | did not degrade the ER protein
